# Columns and labels:
# [1] = system: outbred white male rats; assay: Vogel conflict situation test (punishable drinkings); format: in vivo, rat; conditions: for No. of punishable drinkings: 40 min before test, 10 min registration
# Procedure: 93-113). Such conflict situations most frequently lead to stress and neurotic diseases.
# The tests were conducted using outbred white male rats with body weights between 220 g and 250 g. […] The conflict situation was created by suppressing the drinking reflex during water consumption from the drinking tube using algesic electric stimulus (i.e., electric shock causing pain). Thus, the Vogel conflict method is based on the conflict of two motivations: drinking and defensive. Thus, the animal fears punishment when attempting to satisfy its thirst, and that fear suppresses typical animal behavior. The animal cannot satisfy its thirst, creating an imbalance between what is desirable and what is real, thereby resulting in a stressful situation, accompanied by anxiety and fear of receiving an additional algesic electric stimulus. If a test compound has anxiolytic effect, it will enable the animal to overcome anxiety and fear of the punishment factor, restoring the ability to drink despite the possibility of receiving additional algesic electric stimuli, measured as an increase in incidents of punishable responses, i.e., drinking, despite the continued risk of receiving algesic electric stimuli.
# The experimental setup consists of three parts: 4 experimental chambers, an electronic unit and a counting device. The experimental chamber measures 275×275×450 mm and is made of Plexiglas. It is installed on a standard electrode floor made of 4 mm diameter stainless steel rods spaced by 8-10 mm apart. Attached to the side wall of each chamber is a standard drinking tube attached to a glass container including a stainless steel nipple. In the device, the drinking tube is installed within common space of the chamber, not in the darkened section. The nipple extends 2 cm into the chamber at a height of 5 cm from the floor. The reason for such arrangement is that once exposed to a new environment, the animals instinctively attempt to hide in the dark section, and therefore may accidentally find a drinking tube, not as a consequence of purposeful search to satisfy the motivation. The electrode floor and the nipple of the drinking tube are connected to the electronic unit. The electronic unit contains current stabilizers (one per channel, which provides the possibility of independent current regulation), output signal generators for the counting device and delay generators for supplying punishing current to the drinking tube during the day of the experiment. That arrangement permits registration of non-punishable drinkings while establishing a drinking habit (trainings without supplying current to the drinking tubes), administration of a punishment current, and recordation of signals from punishable drinkings during the experiment.
# The counting device enables registration of non-punishable drinkings during training and punishable drinkings during the experiment. Registration of readings was conducted using Pentium III personal computer with a 550 MHz C.P.U., a special device for converting output signals from the electronic unit into standard pulses suitable for inputting to the computer via a serial port, and a program written in BASIC (Beginner's All-Purpose Symbolic Instruction Code) for recording events and time intervals into disc files. The data accumulated in these files was later analyzed with the statistical package Statistica® for Windows®.
# The experiment was conducted for 3 days. On the first day, the animals were completely deprived of water. On the second day, i.e., after 24-hours without water, animals were allowed to establish a habit of taking water from the drinking tube. To achieve this, animals were placed in the experimental chamber for 5 minutes. Typically, each animal surveyed the chamber and after a period of time found a drinking tube and started to drink. On the […] day, a weak current of 50 μA was applied to the drinking tube and the chamber floor. […]
# [2] = system: white outbred male rats; assay: Open field test under stress; conditions: for Exits to the center of the field / Horizontal activity / Surveyed holes / Vertical activity: 40 min after dosing, 3 min observation
# Procedure: The “open field” test uses a method of creating stress based on a rat's fear of new surroundings, open space and bright illumination.
# An open field setup used in this study consisted of a one meter square box (1 m×1 m×1 m) with a clear top. The floor of the chamber was uniformly divided by lines into 9 squares, with 16 2.5 cm diameter holes. Before the experiment, rats were kept in the dark for 10 minutes, after which they were placed onto one of the peripheral squares of the open field. […] During the experiment the following information was recorded: the number of crossed squares on the periphery and in the center (separately), the number of vertical stands, the number of times holes were surveyed, and the number of exits to the center of the open field.
# The main indicator of anxiolytic effect of the drugs was the measure of number of exits by the rat to the center of illuminated field. Increase or decrease in the number of horizontal or vertical movements reflected sedative or stimulating effect of the drug, while the number of holes surveyed reflects orientation-investigative behavior of the rat.
# Experiments were conducted using white outbred male rats weighing 240 g to 280 g. Before the beginning of the test, experimental animals were randomly separated into groups containing at least 10 rats. […] Rats in the control group received 0.2 ml water per 100 g mass administered intraperitoneally. Data was recorded beginning 40 minutes after administering the compounds.
# [3] = system: white outbred male rats; assay: Elevated plus-maze (EPM) in rats; conditions: for Latent time / Number of entries into bright arms / Number of entries into dark arms / Time in bright arms / Total number of crossings: 40 min after dosing, 5 min observation
# Procedure: The model is based on stress and fear, which appear in animals while displaying orientation-investigative behavior and burrowing reflex under the complicated conditions of elevated plus-maze (novelty of surroundings, fear of height and illumination).
# EPM for rats is performed in a chamber consisting of four compartments formed by the crossing of two strips measuring 50×10 cm. Two opposing compartments have vertical walls 40 cm high (protected dark arms), while two others (unprotected open bright arms) are free from protective walls. The maze is elevated 50 cm off the floor. At the center of the chamber where the two strips cross, there is a central platform measuring 10×10 cm. Rats were placed on the central platform with their tails facing an open bright arm. Time remaining on the central platform, time spent by the animals inside the open arms, and the number of entries into open and closed arms were recorded. The total observation time for each animal was 5 minutes. The main criterion of anxiolytic effect is the measure of time spent in the open bright arm of the setup. The number of crossings the central platform (number of entries into the dark and bright arms of the maze and the sum thereof) was used to estimate the effect of compounds on orientation-investigative behavior and motion activity of rats.
# Experiments were conducted using white outbred male rats weighing 240 g to 280 g. Before beginning the test, experimental animals were randomly separated into groups of at least 10 rats. […] Rats in the control group received 0.2 ml water per 100 g mass administered intraperitoneally. Data was recorded beginning forty minutes after administration of the compounds.
# [4] = system: SAM-P/10 mice; assay: Elevated plus-maze in SAM-P/10 mice with genetically determined anxiety; format: in vivo, mouse; conditions: 11-month old SAM-P/10 mice; for Latent time / Number of entries into bright arms / Number of entries into dark arms / Time in bright arms / Total number of crossings: 40 min prior to testing, 5 min observation
# Text: One of the modern methods of studying the anxiolytic effect of drugs uses a mouse strain with an increased level of anxiety. This study utilized mice of the SAM-P/10 line (Takeda, T., et al., “Senescence-Accelerated Mouse (SAM): A Novel Murine Model of Accelerated Senescence,” J. Amer. Geriatr. Soc., 1991, v. 39, pp. 911-919) weighing between 26 g and 31 g, in which, among other changes, a genetically determined anxiety is observed. […] Those symptoms actively accumulate beginning from the age of 6-months (accelerated aging) (Miyamoto, M., “Indicators of age-related behavioral changes in Senescence-Accelerated Mouse SAMP8 and SAMP10,” Exp. Gerontol., 1997, v. 32, pp. 139-148; and Shimada, A., et al., “Age-related deterioration in conditional avoidance task in the SAM-P/10 mouse, an animal model of spontaneous brain atrophy,” Brain Res., 1993, v. 608, pp. 266-272).
# This study utilized SAM-P/10 (Senescence-Accelerated Mouse P10) mice in two age groups—3-months and 11-months old. A group of 3-month old animals and a group of 11-month old animals were each divided into three subgroups: one group received Dimebon at a dose of 0.05 mg/kg, the second group received Dimebon at a dose of 2 mg/kg, and the third group received physiological saline. All substances were administered intraperitoneally 40 minutes prior to testing in the amount of 0.1 ml per 10 g of mouse weight. This study was conducted during the first half of the day from 10:00 a.m. to 2:00 p.m.
# The maze is elevated 30 cm off the floor. […] Time spent by mice in the open arms of the maze was used as a main indicator of anxiety level.
# [5] = system: AMPA receptors; conditions: cerebral neurons in rats; cited from earlier work
# [6] = system: NMDA receptors; conditions: cerebral neurons in rats; cited from earlier work
smiles,measurement,setting,value
"CN1C(=O)CN=C(c2ccccc2)c2cc(Cl)ccc21 [Diazepam ®, reference compound]",No. of punishable drinkings,[1]; 2.0 mg/kg i.p.,372.71 ± 27.81
same,Side effects at the anxiolytic dose (in words),[1]; therapeutic dose of 2 mg/kg,"sedation, reduction in motion activity and impaired coordination"
same,Effect on horizontal and vertical motion activity within the open field (in words),[2]; 2 mg/kg,significantly suppressed
same,Exits to the center of the field,[2]; 2 mg/kg i.p.,1.8 ± 0.3
same,Horizontal activity,[2]; 2 mg/kg i.p.,10.2 ± 1.4
same,Surveyed holes,[2]; 2 mg/kg i.p.,6.5 ± 1.9
same,Vertical activity,[2]; 2 mg/kg i.p.,3.4 ± 1.3
same,Sedative effect in elevated plus-maze (in words),[3]; 2 mg/kg i.p.,"sedative, depriming effect"
same,Latent time,[3]; 2.0 mg/kg i.p.,7.68 ± 2.0 s
same,Number of entries into bright arms,[3]; 2.0 mg/kg i.p.,2.12 ± 1.08
same,Number of entries into dark arms,[3]; 2.0 mg/kg i.p.,2.20 ± 0.47
same,Time in bright arms,[3]; 2.0 mg/kg i.p.,25.6 ± 6.87 s
same,Total number of crossings,[3]; 2.0 mg/kg i.p.,4.32 ± 1.01
"Cc1ccc2c(c1)c1c(n2CCc2ccc(C)nc2)CCN(C)C1 [Dimebon, 2,8-dimethyl-5-[2-(6-methyl-3-pyridyl)ethyl]-2,3,4,5-tetrahydro-1H-pyrido[4,3-b]indole]",No. of punishable drinkings,[1]; 0.05 mg/kg i.p.,171.31 ± 15.67
same,No. of punishable drinkings,[1]; 0.1 mg/kg i.p.,261.18 ± 29.74
same,No. of punishable drinkings,[1]; 2.0 mg/kg i.p.,354.25 ± 32.49
same,No. of punishable drinkings,[1]; 5.0 mg/kg i.p.,405.33 ± 26.35
same,Change in punishable drinkings versus control (in words),[1]; dose range 0.1 to 5 mg/kg i.p.,statistically significant increase
same,Sedative and muscle relaxant side effects (in words),[1]; doses 0.1-5.0 mg/kg,lacks the sedative and muscle relaxant side effects
same,"Time spent in the open, unprotected arms relative to control (in words)",[4]; 0.05 mg/kg,doubled
same,Latent time,[4]; 0.05 mg/kg i.p.,7.5 ± 1.5 s
same,Number of entries into bright arms,[4]; 0.05 mg/kg i.p.,1.9 ± 1.0
same,Number of entries into dark arms,[4]; 0.05 mg/kg i.p.,5.86 ± 1.53
same,Time in bright arms,[4]; 0.05 mg/kg i.p.,8.7 ± 3.3 s
same,Total number of crossings,[4]; 0.05 mg/kg i.p.,11.7 ± 1.5
same,Increase in the number of entries into the open arms,[4]; 2 mg/kg,more than 4 fold
same,Increase in the time spent in the open arms,[4]; 2 mg/kg,more than 4 fold
same,Latent time,[4]; 2.0 mg/kg i.p.,6.0 ± 1.4 s
same,Number of entries into bright arms,[4]; 2.0 mg/kg i.p.,4.2 ± 1.1
same,Number of entries into dark arms,[4]; 2.0 mg/kg i.p.,7.10 ± 3.21
same,Time in bright arms,[4]; 2.0 mg/kg i.p.,17.7 ± 5.2 s
same,Total number of crossings,[4]; 2.0 mg/kg i.p.,18.1 ± 5.3
same,Effect on transmembrane currents caused by activation of the AMPA receptors,[5],potentiates
same,Effect on NMDA receptors,[6],blocking
same,Exits to the center of the field,[2]; 0.1 mg/kg i.p.,0.8 ± 0.3
same,Horizontal activity,[2]; 0.1 mg/kg i.p.,21.7 ± 5.9
same,Surveyed holes,[2]; 0.1 mg/kg i.p.,12.3 ± 1.7
same,Vertical activity,[2]; 0.1 mg/kg i.p.,7.8 ± 1.3
same,Exits to the center of the field,[2]; 2 mg/kg i.p.,1.5 ± 0.2
same,Horizontal activity,[2]; 2 mg/kg i.p.,20.3 ± 6.1
same,Surveyed holes,[2]; 2 mg/kg i.p.,11.2 ± 2.6
same,Vertical activity,[2]; 2 mg/kg i.p.,6.9 ± 3.2
same,Exits to the center of the field,[2]; 5 mg/kg i.p.,2.2 ± 0.3
same,Horizontal activity,[2]; 5 mg/kg i.p.,19.2 ± 2.4
same,Surveyed holes,[2]; 5 mg/kg i.p.,13.5 ± 1.9
same,Vertical activity,[2]; 5 mg/kg i.p.,9.3 ± 2.4
same,Effect on number of horizontal and vertical movements and surveyed holes (in words),"[2]; doses of 0.1, 2 and 5 mg/kg",did not cause a decrease
same,Anxiolytic effect in the open field test (in words),[2]; doses of 2 and 5 mg/kg,"significant, pronounced anxiolytic effect"
same,Time spent inside the open arms relative to control,[3]; 0.1 mg/kg i.p.,nearly five times as long as the control
same,Latent time,[3]; 0.1 mg/kg i.p.,3.43 ± 0.53 s
same,Number of entries into bright arms,[3]; 0.1 mg/kg i.p.,1.86 ± 1.00
same,Number of entries into dark arms,[3]; 0.1 mg/kg i.p.,5.86 ± 1.53
same,Time in bright arms,[3]; 0.1 mg/kg i.p.,20.00 ± 7.75 s
same,Total number of crossings,[3]; 0.1 mg/kg i.p.,7.71 ± 2.25
same,Increase in the number of entries into the open arms,[3]; 2 mg/kg i.p.,more than twice
same,Latent time,[3]; 2.0 mg/kg i.p.,2.93 ± 0.41 s
same,Number of entries into bright arms,[3]; 2.0 mg/kg i.p.,4.25 ± 1.18
same,Number of entries into dark arms,[3]; 2.0 mg/kg i.p.,7.10 ± 3.21
same,Time in bright arms,[3]; 2.0 mg/kg i.p.,26.34 ± 8.12 s
same,Total number of crossings,[3]; 2.0 mg/kg i.p.,11.60 ± 3.30
same,Increase in total number of crossings,"[3]; 2 mg/kg i.p., P≦0.05",2 times
